pEC50: −log10 of the molar value.
Tested on: SARS-CoV-2-NLuc in A549-hACE2 cells
Assay: microbe, parasite or virus in culture
Assay type: cell-based, SARS Coronavirus 2
Conditions: Severe acute respiratory syndrome coronavirus, 48 h, read-out: MPro EC50 (nM)

SMILES | EC50
COc1ccc(Cl)c(-c2cc3[nH]c(=O)n(-c4cncc5ccccc45)c(=O)c3o2)c1 [Example 3] | 23.3 nM
O=c1[nH]c2cc(-c3ccccc3Cl)oc2c(=O)n1-c1cncc2c1CCCC2 [Example 5] | 212 nM
Cn1ncc2cncc(-n3c(=O)[nH]c4cc(-c5ccccc5Cl)oc4c3=O)c21 [Example 6] | 174 nM
O=c1[nH]c2cc(-c3ccccc3Cl)oc2c(=O)n1-c1cncc2ccc(F)cc12 [Example 7] | 79.6 nM
Cc1cncc(-n2c(=O)[nH]c3cc(-c4ccccc4Cl)oc3c2=O)c1 [Example 8] | 137 nM
COc1ccc2cncc(-n3c(=O)[nH]c4cc(-c5ccccc5Cl)oc4c3=O)c2c1 [Example 10] | 95.6 nM
COc1cc(-c2cc3[nH]c(=O)n(-c4cnnc(C)c4)c(=O)c3o2)c(Cl)cc1F [Example 12] | > 10000 nM
O=c1[nH]c2oc(-c3ccccc3)nc2c(=O)n1-c1cncc2ccccc12 [Example 13] | 4240 nM
O=c1[nH]c2oc(-c3ccccc3Cl)cc2c(=O)n1-c1cncc2ccccc12 [Example 14] | 3330 nM
COc1cc(-c2cc3[nH]c(=O)n(-c4cccnn4)c(=O)c3o2)c(Cl)cc1F [Example 15] | > 10000 nM
COc1cc(-c2cc3c(o2)c(=O)n(-c2cncc4cnn(C)c24)c(=O)n3CCC#N)c(Cl)cc1F [Example 17] | 20.7 nM
Cn1ncc2cncc(-n3c(=O)c4oc(-c5ccccc5Cl)cc4n(CCC#N)c3=O)c21 [Example 18] | 27.8 nM
N#CCCn1c(=O)n(-c2cncc3ccccc23)c(=O)c2oc(-c3ccccc3Cl)cc21 [Example 19] | 13 nM
COc1ccc2cncc(-n3c(=O)c4oc(-c5ccccc5Cl)cc4n(CCC#N)c3=O)c2c1 [Example 20] | 17.1 nM
N#CCCn1c(=O)n(-c2cncc3c2CCCC3)c(=O)c2oc(-c3ccccc3Cl)cc21 [Example 21] | 29.6 nM
N#CCCn1c(=O)n(-c2cncc3ccc(F)cc23)c(=O)c2oc(-c3ccccc3Cl)cc21 [Example 22] | 19 nM
Cc1cncc(-n2c(=O)c3oc(-c4ccccc4Cl)cc3n(CCC#N)c2=O)c1 [Example 23] | 24.1 nM
Cn1ncc2cncc(-n3c(=O)c4oc(-c5ccc(F)cc5Cl)cc4n(CCC#N)c3=O)c21 [Example 24] | 71.4 nM
N#CCCn1c(=O)n(-c2cncc3ccccc23)c(=O)c2oc(-c3ccc(F)cc3Cl)cc21 [Example 25] | 41.7 nM
COc1cc(-c2cc3c(o2)c(=O)n(-c2cccnn2)c(=O)n3CCC#N)c(Cl)cc1F [Example 26] | 408 nM
COc1cc(-c2cc3c(o2)c(=O)n(-c2cnnc(C)c2)c(=O)n3CCC#N)c(Cl)cc1F [Example 27] | 5250 nM

SMILES | EC50
Cn1ncc2cncc(-n3c(=O)c4oc(-c5ccccc5Cl)cc4n(C)c3=O)c21 [Example 29] | 1170 nM
COc1cc(-c2cc3c(o2)c(=O)n(-c2cncc4cnn(C)c24)c(=O)n3C)c(Cl)cc1F [Example 30] | 683 nM
Cn1c(=O)n(-c2cncc3ccccc23)c(=O)c2oc(-c3ccccc3Cl)cc21 [Example 31] | 565 nM
COc1ccc2cncc(-n3c(=O)c4oc(-c5ccccc5Cl)cc4n(C)c3=O)c2c1 [Example 32] | 381 nM
Cn1c(=O)n(-c2cncc3ccccc23)c(=O)c2cc(-c3ccccc3Cl)oc21 [Example 33] | 145 nM
Cn1c(=O)n(-c2cncc3c2CCCC3)c(=O)c2oc(-c3ccccc3Cl)cc21 [Example 34] | 960 nM
Cc1cncc(-n2c(=O)c3oc(-c4ccccc4Cl)cc3n(C)c2=O)c1 [Example 35] | 726 nM
Cn1c(=O)n(-c2cncc3ccccc23)c(=O)c2oc(-c3ccc(F)cc3Cl)cc21 [Example 36] | 3270 nM
Cn1ncc2cncc(-n3c(=O)c4oc(-c5ccccc5Cl)cc4n(CC#N)c3=O)c21 [Example 38] | 88 nM
COc1cc(-c2cc3c(o2)c(=O)n(-c2cncc4cnn(C)c24)c(=O)n3CC#N)c(Cl)cc1F [Example 39] | 50.7 nM
N#CCn1c(=O)n(-c2cncc3ccccc23)c(=O)c2oc(-c3ccccc3Cl)cc21 [Example 40] | 20.1 nM
COc1ccc2cncc(-n3c(=O)c4oc(-c5ccccc5Cl)cc4n(CC#N)c3=O)c2c1 [Example 41] | 16.6 nM
N#CCn1c(=O)n(-c2cncc3c2CCCC3)c(=O)c2oc(-c3ccccc3Cl)cc21 [Example 42] | 36.7 nM
N#CCn1c(=O)n(-c2cncc3ccc(F)cc23)c(=O)c2oc(-c3ccccc3Cl)cc21 [Example 43] | 25.3 nM
Cc1cncc(-n2c(=O)c3oc(-c4ccccc4Cl)cc3n(CC#N)c2=O)c1 [Example 45] | 52.3 nM
N#CCn1c(=O)n(-c2cncc3ccccc23)c(=O)c2oc(-c3ccc(F)cc3Cl)cc21 [Example 46] | 58.4 nM
Cn1ncc2cncc(-n3c(=O)c4oc(-c5ccccc5Cl)cc4n(CC4(C#N)CC4)c3=O)c21 [Example 48] | 8.36 nM
COc1cc(-c2cc3c(o2)c(=O)n(-c2cncc4cnn(C)c24)c(=O)n3CC2(C#N)CC2)c(Cl)cc1F [Example 49] | 12.2 nM
N#CC1(Cn2c(=O)n(-c3cncc4ccccc34)c(=O)c3oc(-c4ccccc4Cl)cc32)CC1 [Example 50] | 6.99 nM
COc1ccc2cncc(-n3c(=O)c4oc(-c5ccccc5Cl)cc4n(CC4(C#N)CC4)c3=O)c2c1 [Example 51] | 12.1 nM

Same assay, conditions: Severe acute respiratory syndrome coronavirus, 48 h; read-out: MPro EC50

SMILES | pEC50
O=c1[nH]c2cc(-c3ccccc3Cl)oc2c(=O)n1-c1cncc2ccccc12 [Example 4, 6-(2-chlorophenyl)-3-(4-isoquinolyl)-1H-furo[3,2-d]pyrimidine-2,4-dione] | 6.56
Cn1ncc2cncc(-n3c(=O)[nH]c4cc(-c5ccc(F)cc5Cl)oc4c3=O)c21 [Example 9] | 6.00
COc1cc(-c2cc3[nH]c(=O)n(-c4cncc5ccccc45)c(=O)c3o2)c(Cl)cc1F [Example 11, 6-(2-chloro-4-fluoro-5-methoxy-phenyl)-3-(4-isoquinolyl)-1H-furo[3,2-d]pyrimidine-2,4-dione] | 7.09
COc1cc(-c2cc3c(o2)c(=O)n(-c2cncc4ccccc24)c(=O)n3CCC#N)c(Cl)cc1F [Example 16, 3-(6-(2-chloro-4-fluoro-5-methoxyphenyl)-3-(isoquinolin-4-yl)-2,4-dioxo-3,4-dihydrofuro[3,2-d]pyrimidin-1(2H1)-yl)propanenitrile] | 8.36
COc1cc(-c2cc3c(o2)c(=O)n(-c2cncc4ccccc24)c(=O)n3C)c(Cl)cc1F [Example 28, 6-(2-chloro-4-fluoro-5-methoxy-phenyl)-3-(4-isoquinolyl)-1-methyl-furo[3,2-d]pyrimidine-2,4-dione] | 6.54
COc1cc(-c2cc3c(o2)c(=O)n(-c2cncc4ccccc24)c(=O)n3CC#N)c(Cl)cc1F [Example 37, 2-(6-(2-chloro-4-fluoro-5-methoxyphenyl)-3-(isoquinolin-4-yl)-2,4-dioxo-3,4-dihydrofuro[3,2-d]pyrimidin-1(2H)-yl)acetonitrile] | 7.80
COc1cc(-c2cc3c(o2)c(=O)n(-c2cncc4ccccc24)c(=O)n3CC2(C#N)CC2)c(Cl)cc1F [Example 47, 1-((6-(2-chloro-4-fluoro-5-methoxyphenyl)-3-(isoquinolin-4-yl)-2,4-dioxo-3,4-dihydrofuro[3,2-d]pyrimidin-1(2H)-yl)methyl)cyclopropane-1-carbonitrile] | 7.53

Same assay, conditions: read-out: MPro EC50

SMILES | pEC50
COc1cc(-c2cc3c(o2)c(=O)n(-c2cncc4ccccc24)c(=O)n3CCC#N)c(Cl)cc1F (single isomer, unassigned) [Example 59, 3-[6-(2-chloro-4-fluoro-5-methoxy-phenyl)-3-(4-isoquinolyl)-2,4-dioxo-furo[3,2-d]pyrimidin-1-yl]propanenitrile] | 8.33
COc1cc(-c2cc3c(o2)c(=O)n(-c2cncc4ccccc24)c(=O)n3CCC#N)c(Cl)cc1F (single isomer, unassigned) [Example 60, 3-[6-(2-chloro-4-fluoro-5-methoxy-phenyl)-3-(4-isoquinolyl)-2,4-dioxo-furo[3,2-d]pyrimidin-1-yl]propanenitrile] | 7.08
Cn1ncc2cncc(-n3c(=O)c4oc(-c5ccccc5Cl)cc4n(CCC#N)c3=O)c21 (single isomer, unassigned) [Example 61, 3-[6-(2-chlorophenyl)-3-(1-methylpyrazolo[4,3-c]pyridin-7-yl)-2,4-dioxo-furo[3,2-d]pyrimidin-1-yl]propanenitrile] | 8.15
Cn1ncc2cncc(-n3c(=O)c4oc(-c5ccccc5Cl)cc4n(CCC#N)c3=O)c21 (single isomer, unassigned) [Example 62, 3-[6-(2-chlorophenyl)-3-(1-methylpyrazolo[4,3-c]pyridin-7-yl)-2,4-dioxo-furo[3,2-d]pyrimidin-1-yl]propanenitrile] | 6.63
COc1cc(-c2cc3c(o2)c(=O)n(-c2cncc4cnn(C)c24)c(=O)n3CCC#N)c(Cl)cc1F (single isomer, unassigned) [Example 63, 3-[6-(2-chloro-4-fluoro-5-methoxy-phenyl)-3-(1-methylpyrazolo[4,3-c]pyridin-7-yl)-2,4-dioxo-furo[3,2-d]pyrimidin-1-yl]propanenitrile] | 8.20
COc1cc(-c2cc3c(o2)c(=O)n(-c2cncc4cnn(C)c24)c(=O)n3CCC#N)c(Cl)cc1F (single isomer, unassigned) [Example 64, 3-[6-(2-chloro-4-fluoro-5-methoxy-phenyl)-3-(1-methylpyrazolo[4,3-c]pyridin-7-yl)-2,4-dioxo-furo[3,2-d]pyrimidin-1-yl]propanenitrile] | 6.95
COc1cc(-c2cc3c(o2)c(=O)n(-c2cncc4cccnc24)c(=O)n3CCC#N)c(Cl)cc1F (single isomer, unassigned) [Example 65, 3-(6-(2-chloro-4-fluoro-5-methoxyphenyl)-3-(1,6-naphthyridin-8-yl)-2,4-dioxo-3,4-dihydrofuro[3,2-d]pyrimidin-1(2H)-yl)propanenitrile] | 8.24
COc1cc(-c2cc3c(o2)c(=O)n(-c2cncc4cccnc24)c(=O)n3CCC#N)c(Cl)cc1F (single isomer, unassigned) [Example 66, 3-(6-(2-chloro-4-fluoro-5-methoxyphenyl)-3-(1,6-naphthyridin-8-yl)-2,4-dioxo-3,4-dihydrofuro[3,2-d]pyrimidin-1(2H)-yl)propanenitrile] | 6.95
